Measurements published in patent publication US20210069375A1, “Extracellular Matrices, Uses thereof, and Method for Making Extracellular Matrices” (Gemstone Biotherapeutics LLC, priority 2017, published 2021).

Test: reactivity of the drug under the curing conditions of the EMR
Assay type: physicochemical
Details: mixed with dextramate, PEGDA and Irgacure, cured for 10 minutes
Procedure: Dextramate (24.2 mL of a 23.1 w/w % solution), PEGDA (16.3 mL of a 8.6 w/w % solution), Irgacure (14 mL of a 0.5 w/w % solution), and valsartan (2.82 mL or 1.41 mL of a 24.8 w/w % solution or 2.82 mL of a 1:10 dilution of a 24.8 w/w % solution) are mixed together. The mixture is cured for 10 minutes. After curing, 100 mL of dH2O is added to the cured product to create a swelled gel.

reactivity under the curing conditions: does not exhibit reactivity
SMILES: CCCCC(=O)N(Cc1ccc(-c2ccccc2-c2nnn[nH]2)cc1)[C@H](C(=O)O)C(C)C [valsartan]
